Assays:
C2C12 myoblasts [1] = experiment: Immunoblot of PGC-1α, differentiation markers and mitochondrial protein in indoprofen-treated myoblasts; assay type: cell-based
Protocol: The effect of indoprofen on the differentiation of C2C12 myoblasts into muscle cells was analyzed. Dulbecco's Modified Eagle Medium (DMEM) supplemented with 15% fetal bovine serum was used as a growth medium for the culture of C2C12 myoblasts, and DMEM supplemented with 2% horse serum was used as a differentiation medium for differentiation into muscle cells. To induce differentiation of C2C12 myoblasts into muscle cells, 10 μM or 100 μM indoprofen dissolved in DMSO was added to the experimental groups, and DMSO alone was added to the control group. The cells were cultured for 48 hours to induce differentiation, and then a RIPA buffer (50 mM Tris-HCl, pH 7.5, 150 mM NaCl, 1% Triton X100, 0.1% SDS, 2 mM EDTA, 0.5% sodium deoxycholate, Proteinase Inhibitor) was added to the harvested cells to allow lysis for 30 minutes, followed by centrifugation at 13,000 rpm for 30 minutes. The amount of protein in the cell lysis sample was quantified and an equal amount of protein was subjected to 7% or 15% SDS-PAGE. The protein was transferred onto a PVDF membrane, and then incubated in a blocking buffer containing 5% skim milk for 1 hour. Primary antibodies specific to individual proteins, diluted in 5% BSA, are reacted with the membrane at 4° C. for 12 hours, and then the membrane was washed with a wash buffer for 5 minutes three times. Secondary antibodies were diluted with the blocking buffer and allowed to react with the membrane at room temperature for 1 hour. Thereafter, the membrane was washed with the wash buffer for 5 minutes three times, and then exposed to X-ray film using an ECL reagent (Roche) to confirm protein expression levels.

C57BL/6 female mice [2] = experiment: Immunohistochemistry of 2a/2b type muscle fiber in extensor digitorum longus muscles of indoprofen-treated mice; assay type: in vivo, mouse; conditions: oral, 2 weeks
Protocol: 10 week-old C57BL/6 female mice were bred at a temperature of 22±2° C., humidity of 55±5%, and a light-dark cycle of 12:12 hours. Mice were orally administered 1.5 mg/kg of indoprofen in 100 μl of PBS twice a day. A control group was orally administered with 100 μl of PBS twice a day. The mice were allowed free access to drinking water. Skeletal muscles were separated from the mice fed with indoprofen for 2 weeks, and subjected to immunoblot analysis. To examine distribution of 2a type muscle fiber and 2b type muscle fiber, extensor digitorum longus muscles of mice administered with indoprofen for 2 weeks were subjected to immunohistochemistry. 2a type muscle fiber is an oxidative muscle fiber type, and there are two types: aerobic, that is, oxygen-dependent energy source and anaerobic, that is, oxygen-independent energy source. 2b type muscle fiber is a glycolytic muscle fiber type, and includes only anaerobic energy source. Frozen sections stored in a deep freezer of −80° C. were washed with 1×PBS twice, and fixed with 4% paraformaldehyde at room temperature for 15 minutes, and then washed with 1×PBS twice. The tissue and a permeabilization buffer (0.2% Triton-X/PBS) were reacted at room temperature for 30 minutes, and washed with 1×PBS twice. […] After sealing, a fluorescence microscope (Nikon, body: Ti-u, camera: DS-RI1, program: NIS-elements BR 3.1) was used for analysis.

human PGC-1α promoter = experiment: PGC-1α promoter luciferase reporter screening in C2C12-PGC-1α reporter cell line; assay type: cell-based, mouse; conditions: 10 μM, 48 hours, C2C12-PGC-1α reporter cells, vs DMSO control
Protocol: To screen a compound activating PGC-1α gene expression in C2C12 myoblast cells, a PGC-1α reporter-expressing C2C12 cell line (hereinafter, referred to as ‘PGC-1α reporter cell line’ or ‘C2C12-PGC-1α cell line) was established. A vector expressing luciferase and dscGFP (destabilized Green Fluorescent Protein) under a human PGC-1α promoter having a length of 1 kb was prepared, and this vector was inserted into lentivirus to transfect C2C12 cells. To select a cell line that genetically stably expressed the vector, fluorescence emitted from green fluorescent protein (GFP) included in the vector was monitored. 5 μg/ml of puromycin, a selection marker for the vector, was added to a cell culture medium, and a cell line expressing PGC-1α reporter was selected. […] The expression level is measured by luminescence after addition of a luciferase substrate, thereby determining activation or inhibition of PGC-1α transcription by the compound.
The C2C12-PGC-1α reporter cell line prepared in Section 1 was used to screen a PGC-1α expression regulator from 2320 compounds provided by Korea Chemical Bank. […] 48 hours later, luminescence by luciferase was measured. […] Then, luminescence is measured. The measured values were normalized to each well and plate, and a value measured in a well treated with a solvent of the compound, DMSO, is used as a control group to express the value as a relative ratio.

C2C12 myoblasts [3] = experiment: Differentiation of indoprofen-treated myoblasts (MHC antibody fluorescence staining, DAPI); assay type: cell-based; conditions: 10 μM or 100 μM, differentiation 3 days, vs DMSO control (FIG. 2)
Protocol: C2C12 myoblasts were treated with 10 μM or 100 μM indoprofen and allowed to differentiate for 3 days. A control group was treated with DMSO alone. Fluorescence staining of C2C12 myotubes was performed using MHC antibody. The number of nuclei within one myotube was counted by DAPI staining. C2C12 cells were differentiated in DMED supplemented with 2% horse serum for 72 hours. The cells were washed with 1×PBS, and then fixed in 4% paraformaldehyde at room temperature for 15 minutes, followed by washing with 1×PBS three times. The cells were reacted with a permeabilizing buffer supplemented with 0.2% Triton-X for 10 minutes, and then washed with 1×PBS three times, followed by blocking using 5% fetal bovine serum at room temperature for 1 hour. A primary antibody, anti-MHC, was diluted with 5% goat serum at a ratio of 1:500 and allowed to react at 4° C. for 12 hours, followed by washing with 1×PBS three times. A secondary antibody, anti-mouse IgG-HRP 594 (Invitrogen) was diluted with 5% goat serum at a ratio of 1:500 and allowed to react at 4° C. for 1 hour, followed by washing with 1×PBS three times. DAPI is diluted with 1×PBS at a ratio of 1:10000 and allowed to react for 1 minute, followed by washing with 1×PBS and fluorescence microscopy.

25-month-old female mice [4] = experiment: SDH and NADPH staining of extensor digitorum longus muscle of indoprofen-administered old mice; assay type: in vivo, mouse; conditions: old (25-month-old) mice, oral in corn oil, 4 weeks
Protocol: Immediately after separation, extensor digitorum longus muscles were fixed in OCT compound and frozen using liquid nitrogen, and then sectioned to a thickness of 7 μm with a cryo-cut freezing microtome. After SDH staining, the frozen tissue sections were reacted in 0.2 M phosphate buffer (pH 7.4) containing SDH at 37° C. for 10 minutes, washed with distilled water, and then sealed, followed by observation. For NADPH staining, the frozen tissue sections were reacted in 3.5 mM phosphate buffer (pH 7.4) containing 0.9 mM NADH, and 1.5 mM nitro blue tetrazolium at 37° C. for 30 minutes, washed with distilled water, and then sealed, followed by observation.
25-month-old female mice (weighing 30 g) were orally administered with indoprofen mixed with corn oil as an experimental group or corn oil only as a control group for 4 weeks. […] Staining of SDH and NADPH in extensor digitorum longus muscles of the old mice orally administered with indoprofen for 4 weeks was performed in the same manner as in 4 of Example 3.

C57BL/6 female mice [5] = experiment: Immunoblotting of tibialis anterior muscles of mice administered with indoprofen; assay type: in vivo, mouse; conditions: 1.5 mg/kg orally twice a day, 2 weeks, 10 week-old mice, vs PBS control (FIG. 3A)
Protocol: (§1) 10 week-old C57BL/6 female mice were bred at a temperature of 22±2° C., humidity of 55±5%, and a light-dark cycle of 12:12 hours. Mice were orally administered 1.5 mg/kg of indoprofen in 100 μl of PBS twice a day. A control group was orally administered with 100 μl of PBS twice a day. The mice were allowed free access to drinking water. Skeletal muscles were separated from the mice fed with indoprofen for 2 weeks, and subjected to immunoblot analysis.

25-month-old female mice [6] = experiment: Weighing lower limb muscles of old mice administered with indoprofen; assay type: in vivo, mouse; conditions: old (25-month-old) mice, fed 4 weeks (FIG. 4C)
Source text: To analyze changes in the muscle weight of old mouse by administration of indoprofen, lower limb muscles were separated from 25-month-old female mice (weighing 30 g) fed with indoprofen for 4 weeks.

C57BL/6 female mice [7] = experiment: Observation of lower limb muscles and heart of mice administered with indoprofen; assay type: in vivo, mouse; conditions: 1.5 mg/kg orally twice a day
Protocol: as §1, with “analysis. To evaluate functional consequence of PGC-1α increased by indoprofen treatment of skeletal muscle, lower limb muscles and organs of mice fed with indoprofen for 2 weeks were separated and analyzed.” for “analysis.”

mouse = conditions: cited from earlier work
C57BL/6 female mice [8] = experiment: SDH and NADPH staining of extensor digitorum longus muscle of indoprofen-administered mice; assay type: in vivo, mouse; conditions: oral, 2 weeks, 10 week-old mice
Protocol: 10 week-old C57BL/6 female mice were bred at a temperature of 22±2° C., humidity of 55±5%, and a light-dark cycle of 12:12 hours. Mice were orally administered 1.5 mg/kg of indoprofen in 100 μl of PBS twice a day. A control group was orally administered with 100 μl of PBS twice a day. The mice were allowed free access to drinking water. Skeletal muscles were separated from the mice fed with indoprofen for 2 weeks, and subjected to immunoblot analysis. Staining of succinic dehydrogenase (SDH) and NADPH in the extensor digitorum longus muscle of a mouse administered with indoprofen for 2 weeks was performed. This staining method is a method of analyzing mitochondrial activity by measuring activities of SDH and NADPH which are enzymes involved in the electron transport chain of mitochondria. Staining degree of SDH and NADPH represents a content of oxidative muscle fiber. Immediately after separation, extensor digitorum longus muscles were fixed in OCT compound and frozen using liquid nitrogen, and then sectioned to a thickness of 7 μm with a cryo-cut freezing microtome. After SDH staining, the frozen tissue sections were reacted in 0.2 M phosphate buffer (pH 7.4) containing SDH at 37° C. for 10 minutes, washed with distilled water, and then sealed, followed by observation. […]

[9] = 10 μM or 100 μM, 48 hours differentiation, Western blot, vs DMSO control (FIG. 1)

CC(C(=O)O)c1ccc(N2Cc3ccccc3C2=O)cc1 (stereo not shown) [indoprofen, 2-[4-(1-oxo-1,3-dihydro-2H-isoindol-2-yl)phenyl]propionic acid]
expression of PGC-1α (C2C12 myoblasts [1]; [9]): greatly increased | expression of mitochondrial protein cytochrome C (C2C12 myoblasts [1]; [9]): greatly increased | expression of muscle differentiation marker MHC (C2C12 myoblasts [1]; [9]): greatly increased | expression of muscle differentiation marker myogenin (C2C12 myoblasts [1]; [9]): greatly increased | expression of myoglobin (C2C12 myoblasts [1]; [9]): greatly increased | concentration of optimal activity (C2C12 myoblasts [1]; C2C12 myoblasts, protein expression (FIG. 1)): 100 µM | number of oxidative 2a type muscle fiber in extensor digitorum longus muscle (C57BL/6 female mice [2]; anti-Myh2a antibody, vs non-treated control (FIG. 3C)): increased | number of glycolytic 2b type muscle fiber in extensor digitorum longus muscle (C57BL/6 female mice [2]; anti-Myh2b antibody, vs non-treated control (FIG. 3D)): decreased | PGC-1α promoter activity (luciferase luminescence, relative ratio to DMSO control) (human PGC-1α promoter): greatly increased | myotube formation and fusion of myoblasts (C2C12 myoblasts [3]): increased | percentage of the nuclei labeled with MHC antibody (C2C12 myoblasts [3]): significantly increased | percentage of muscle fiber having increased SDH activity in extensor digitorum longus muscle (25-month-old female mice [4]; vs corn oil control (FIG. 4A)): increased | percentage of muscle fiber having increased NADPH activity in extensor digitorum longus muscle (25-month-old female mice [4]; vs corn oil control (FIG. 4B)): increased | expression of PGC-1α in tibialis anterior muscle (C57BL/6 female mice [5]): increased | expression of myoglobin in tibialis anterior muscle (C57BL/6 female mice [5]): increased | weight of lower limb muscle (Sol, Gas, EDL, TA) (25-month-old female mice [6]): increases | heart size (C57BL/6 female mice [7]; 2 weeks (FIG. 3B (C))): no change | appearance of quadriceps muscle and gastrocnemius muscle (white vs red muscle) (C57BL/6 female mice [7]; 2 weeks, vs control group (FIG. 3B)): converted to red muscles | lethal dose (LD)-50 for 50% mouse mortality (mouse; mouse): 700 mg per mouse body weight (kg) | percentage of muscle fiber having increased SDH activity in extensor digitorum longus muscle (C57BL/6 female mice [8]; vs control group (FIG. 3E)): increased | percentage of muscle fiber having increased NADPH activity in extensor digitorum longus muscle (C57BL/6 female mice [8]; vs control group (FIG. 3F)): increased

CC(=O)Oc1ccccc1C(=O)O [aspirin]
ID50 (mouse; for reference): 250 mg/kg

From patent US10610515B2, “Composition including indoprofen and use thereof” (Samsung Electronics Co., Ltd., priority 2015, dated 2020)
